Values of other authors in patent US20200261395A1, “METHOD FOR TREATMENT OF ROSACEA” (Sol-Gel Technologies Ltd., priority 2019, published 2020).

System: rosacea lesions
Details: BPO as sole active agent

For `O=C(OOC(=O)c1ccccc1)c1ccccc1` [BPO, Benzoyl peroxide], the “Response of rosacea lesions” value is given as “unresponsive”.
